{"source": "patent US20230233600A1", "about": "“IMPROVED VIRUCIDAL FORMULATIONS” (priority 2020, published 2023)", "tested_on": "SARS-CoV-2", "type": "cell-based", "settings": "for LRV (log reduction value), reduction of virus compared to the virus control / Virus Titer: solution at 90%", "key": {"[1]": {"settings": "incubation 15 seconds at 37° C."}, "[2]": {"settings": "incubation 15 minutes at 37° C."}}, "note": "Read-outs that look alike come from different tables or passages of the source."}
{"smiles": "CCO", "note": "[Ethanol]", "values": [{"measurement": "LRV (log reduction value), reduction of virus compared to the virus control", "setting": "[1]", "result": 4.3}, {"measurement": "Virus Titer", "setting": "[1]", "result": "0.67 Log10 CCID50 of virus per mL"}, {"measurement": "LRV (log reduction value), reduction of virus compared to the virus control", "setting": "incubation 5 minutes at 37° C.", "result": ">4.3"}, {"measurement": "Virus Titer", "setting": "incubation 5 minutes at 37° C.", "result": "<0.67 Log10 CCID50 of virus per mL"}, {"measurement": "LRV (log reduction value), reduction of virus compared to the virus control", "setting": "[2]", "result": ">4.3"}, {"measurement": "Virus Titer", "setting": "[2]", "result": "<0.67 Log10 CCID50 of virus per mL"}, {"measurement": "virus titer (baseline reached)", "setting": "positive control, contact time not given", "result": 0.67, "unit": "log10 CCID50/ml"}]}
